Assay results as given in patent US7612018B2, “Insecticides” (Syngenta Crop Protection, Inc., priority 2004, dated 2009).

Columns and labels:
[1] = tested on: Spodoptera littoralis; test: Systemic Insecticide Test for Spodoptera littoralis (Example B9); format: in vivo; conditions: for Death rate (%) after 4 days: 1st instar larvae on cut leaves, one replicate
Method: Four day old maize seedlings (Zea mais, variety Stoneville) are placed individual in vials containing 24 ml water into which the chemical is diluted at the prescribed concentrations (12.5, 3 and 0.8 ppm). Seedlings are allowed to grow for six days. Subsequently leaves are cut and placed in a Petri dish (3.5 cm diameter), inoculated with twelve to fifteen 1st instar S. littoralis larvae and incubated for four days in a growth chamber (25° C., 50% r.h., 18:6 L:D photo period). Number of alive insects are counted and percentage of dead calculated. Tests were conducted with one replicate.

[2] = tested on: Heliothis virescens; test: Activity against Heliothis virescens (foliar application) (Example B3); format: in vivo; conditions: 144 h, young soya plants, spray 400 ppm, 1st instar caterpillars, 6 days, read-out: percentage reduction in the population and in the feeding damage (% activity)
Method: (§1) Young soya plants are sprayed with an aqueous emulsion spray mixture comprising 400 ppm of active ingredient and, after the spray coating has dried on, populated with 10 caterpillars (1st instar) of Heliothis virescens and introduced into a plastic container. 6 days later, the percentage reduction in the population and in the feeding damage (% activity) are determined by comparing the number of dead caterpillars and the feeding damage between the treated and untreated plants.

[3] = tested on: Diabrotica balteata; test: Activity against Diabrotica balteata (Example B2); format: in vivo; conditions: 144 h, maize seedlings, spray 400 ppm, 2nd instar larvae, 6 days, read-out: percentage reduction in the population (% activity)
Method: Maize seedlings are sprayed with an aqueous emulsion spray mixture comprising 400 ppm of active ingredient and, after the spray coating has dried on, populated with 10 larvae (2nd instar) of Diabrotica balteata and introduced into a plastic container. 6 days later, the percentage reduction in the population (% activity) is determined by comparing the number of dead larvae between the treated and untreated plants.

[4] = tested on: Spodoptera littoralis; test: Activity against Spodoptera littoralis (Example B8); format: in vivo; conditions: 72 h, young soya plants, spray 400 ppm, 1st instar caterpillars, 3 days, read-out: percentage reduction in the population and in the feeding damage (% activity)
Method: as §1, with “Spodoptera littoralis” for “Heliothis virescens”, “3” for “6”, “plants. In this test, compounds listed in the Tables above show good activity. In particular, the compounds T.64.1.136, T1.1.136, T64.1.1 and T1.1.1 have an activity of over 80%.” for “plants.”

[5] = tested on: Plutella xylostella; test: Activity against Plutella xylostella (Example B7); format: in vivo; conditions: 72 h, young cabbage plants, spray 400 ppm, 3rd instar caterpillars, 3 days, read-out: percentage reduction in the population and in the feeding damage (% activity)
Method: as §1, with “cabbage” for “soya”, “(3rd” for “(1st”, “Plutella xylostella” for “Heliothis virescens”, “3” for “6”

[6] = 0.8 ppm in water of maize seedlings
[7] = 3 ppm in water of maize seedlings
[8] = 12.5 ppm in water of maize seedlings

Row | SMILES | Death rate (%) after 4 days [1, 6] [%] | Death rate (%) after 4 days [1, 7] [%] | Death rate (%) after 4 days [1, 8] [%] | inhibition at 400 ppm [2] [%] | insecticidal action on Spodoptera littoralis compared with the compound from the state of the art ([1]; comparison with Comp. 124, Table B9) | inhibition at 400 ppm [3] [%] | inhibition at 400 ppm [4] [%] | inhibition at 400 ppm [5] [%] | melting point [°C]
1 | Cc1cc(C(F)(C(F)(F)F)C(F)(F)F)ccc1NC(=O)c1cccc(C)c1C(=O)NC(C)(C)CS(C)(=O)=O [Comp. 124, reference compound] | 0 | 20 | 90 |  |  |  |  |  | 
2 | Cc1cc(C(F)(C(F)(F)F)C(F)(F)F)ccc1NC(=O)c1cccc(I)c1C(=O)NC(C)(C)CS(C)(=N)=O (centres unmarked) [Compound T1.1.1] | 100 | 100 | 100 | > 80 | substantially better insecticidal action | > 80 | > 80 | > 80 | 
3 | Cc1cc(C(F)(C(F)(F)F)C(F)(F)F)ccc1NC(=O)c1cccc(Cl)c1C(=O)NC(C)(C)CS(C)(=N)=O (centres unmarked) [Compound T1.1.136] |  |  |  | > 80 |  |  | > 80 | > 80 | 87 to 88
4 | Cc1cc(C(F)(C(F)(F)F)C(F)(F)F)ccc1NC(=O)c1cccc(I)c1C(=O)NC(C)(C)CS(C)(=O)=NC(=O)OC(C)(C)C (centres unmarked) [Compound T55.1.1] |  |  |  | > 80 |  |  |  | > 80 | 
5 | Cc1cc(C(F)(C(F)(F)F)C(F)(F)F)ccc1NC(=O)c1cccc(Cl)c1C(=O)NC(C)(C)CS(C)(=O)=NC(=O)OC(C)(C)C (centres unmarked) [Compound T55.1.136] |  |  |  | > 80 |  |  |  | > 80 | 113 to 114
6 | Cc1cc(C(F)(C(F)(F)F)C(F)(F)F)ccc1NC(=O)c1cccc(I)c1C(=O)NC(C)(C)C/S(C)=N/C(=O)OC(C)(C)C (centres unmarked) [Compound T64.1.1] |  |  |  | > 80 |  | > 80 | > 80 | > 80 | 125 to 126
7 | Cc1cc(C(F)(C(F)(F)F)C(F)(F)F)ccc1NC(=O)c1cccc(Cl)c1C(=O)NC(C)(C)C/S(C)=N/C(=O)OC(C)(C)C (centres unmarked) [Compound T64.1.136] |  |  |  | > 80 |  | > 80 | > 80 | > 80 | 
